Laboratory results: ChEMBL document CHEMBL3352398, “2-(2-Bromophenyl)-formononetin and 2-heptyl-formononetin are PPARγ partial agonists and reduce lipid accumulation in 3T3-L1 adipocytes” (Bioorg Med Chem, 2014)
pIC50: −log10 of the molar value. Blank lines part the entries; values can stand above or below the compound they belong to. Active and inactive are the calls of the source. No cut-off for these calls is given here.

Tests used:
[1] = biological target: T1, Peroxisome proliferator-activated receptor alpha (Homo sapiens) (UniProt Q07869); assay: Agonist activity at PPAR-alpha (unknown origin) by transactivation assay
T1 sequence (whole entry): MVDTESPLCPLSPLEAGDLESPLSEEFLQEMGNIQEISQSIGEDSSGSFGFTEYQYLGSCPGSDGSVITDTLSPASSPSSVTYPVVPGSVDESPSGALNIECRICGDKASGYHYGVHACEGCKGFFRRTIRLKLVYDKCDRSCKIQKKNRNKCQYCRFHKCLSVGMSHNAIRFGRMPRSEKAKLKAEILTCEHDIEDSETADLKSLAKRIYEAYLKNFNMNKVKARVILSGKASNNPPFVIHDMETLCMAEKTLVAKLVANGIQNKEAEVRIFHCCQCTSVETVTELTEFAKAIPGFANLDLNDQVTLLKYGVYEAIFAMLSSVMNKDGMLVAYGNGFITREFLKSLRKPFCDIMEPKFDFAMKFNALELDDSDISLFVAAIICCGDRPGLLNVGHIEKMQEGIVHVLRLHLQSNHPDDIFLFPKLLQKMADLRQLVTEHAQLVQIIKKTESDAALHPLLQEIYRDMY

[2] = Cytotoxicity against mouse 3T3L1 cells assessed as effect on lactate dehydrogenase release at 5 to 50 uM measured on day 2; assay type: cell-based; details: 3t3-l1, 50 µM
[3] = biological target: T2, Peroxisome proliferator-activated receptor gamma (Mus musculus) (UniProt P37238); assay: Agonist activity at PPAR-gamma in mouse embryo fibroblast at 5 to 50 uM by transactivation assay relative to rosiglitazone
T2 sequence (whole entry): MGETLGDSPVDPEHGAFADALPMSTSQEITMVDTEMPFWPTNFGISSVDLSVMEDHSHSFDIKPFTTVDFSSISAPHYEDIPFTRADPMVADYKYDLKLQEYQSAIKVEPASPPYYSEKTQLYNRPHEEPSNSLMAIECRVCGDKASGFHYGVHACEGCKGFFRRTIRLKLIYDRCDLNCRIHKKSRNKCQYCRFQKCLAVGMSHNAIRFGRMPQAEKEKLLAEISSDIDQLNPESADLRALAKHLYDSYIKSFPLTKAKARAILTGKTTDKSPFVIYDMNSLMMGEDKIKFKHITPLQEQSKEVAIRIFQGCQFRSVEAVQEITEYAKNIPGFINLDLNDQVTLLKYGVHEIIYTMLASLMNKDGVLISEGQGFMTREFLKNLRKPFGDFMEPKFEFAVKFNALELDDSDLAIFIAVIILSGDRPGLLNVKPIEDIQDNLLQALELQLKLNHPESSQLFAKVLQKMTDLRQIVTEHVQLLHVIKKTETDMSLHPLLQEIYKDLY

[4] = Cytotoxicity against mouse 3T3L1 cells assessed as LDH release at 50 uM after 48 hrs; assay type: cell-based; details: 3t3-l1, 48 h
[5] = test system: 3T3-L1; assay: Reduction in lipogenesis in mouse 3T3L1 cells assessed as down regulation of Scd1 gene exression by real time-qPCR analysis; assay type: functional, cell-based
[6] = test system: 3T3-L1; assay: Reduction of adipogenesis in mouse 3T3L1 cells assessed as decrease in lipid accumulation measured on day 8 by fluorescence-based AdipoRed assay; assay type: functional, cell-based
[7] = Effect on adipogenesis in mature mouse 3T3L1 cells assessed as upregulation of Sirt1 gene expression; assay type: functional, cell-based; details: 3T3-L1
[8] = test system: 3T3-L1; assay: Effect on adipogenesis in mouse 3T3L1 cells in DI media assessed as increase in lipid accumulation at <25 uM after 8 days by fluorescence-based AdipoRed assay; assay type: functional, cell-based
[9] = test system: 3T3-L1; assay: Effect on adipogenesis in mouse 3T3L1 cells in DI media assessed as reduction in lipid accumulation at 50 uM measured on day 8 by fluorescence-based AdipoRed assay; assay type: functional, cell-based
[10] = test system: 3T3-L1; assay: Reduction in triglyceride release in mouse 3T3L1 cells at 50 uM after 48 hrs by fluorescence-based AdipoRed assay; assay type: functional, cell-based
[11] = biological target: T2, Peroxisome proliferator-activated receptor gamma (Mus musculus); assay: Agonist activity at PPAR-gamma in mouse embryo fibroblast by transactivation assay relative to rosiglitazone
[12] = test system: 3T3-L1; assay: Activation of AMPK in mouse 3T3L1 cells assessed as AMPK phosphorylation at 50 uM after 5 to 48 hrs by Western blotting analysis; assay type: cell-based
[13] = biological target: T3, Peroxisome proliferator-activated receptor delta (Homo sapiens) (UniProt Q03181); assay: Agonist activity at PPAR-delta (unknown origin) by transactivation assay
T3 sequence (whole entry): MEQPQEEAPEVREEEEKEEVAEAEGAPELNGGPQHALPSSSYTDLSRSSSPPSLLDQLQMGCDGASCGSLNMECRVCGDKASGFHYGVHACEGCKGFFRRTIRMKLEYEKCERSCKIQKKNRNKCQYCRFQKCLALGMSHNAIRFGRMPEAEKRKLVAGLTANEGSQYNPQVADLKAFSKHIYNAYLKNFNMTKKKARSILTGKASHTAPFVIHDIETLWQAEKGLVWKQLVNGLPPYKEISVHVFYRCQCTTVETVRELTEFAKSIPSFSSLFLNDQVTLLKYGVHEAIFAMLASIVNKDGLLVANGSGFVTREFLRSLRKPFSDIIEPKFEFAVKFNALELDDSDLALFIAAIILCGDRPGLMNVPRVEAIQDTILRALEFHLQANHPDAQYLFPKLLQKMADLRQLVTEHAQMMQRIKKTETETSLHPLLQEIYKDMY

[14] = test system: 3T3-L1; assay: Induction of lipolysis in mouse 3T3L1 cells assessed as up-regulation of Acox1 gene exression by real time-qPCR analysis; assay type: functional, cell-based
[15] = test system: 3T3-L1; assay: Effect on lipolysis in mouse 3T3L1 cells assessed as reduction in glycerol level at 5 to 50 uM after 48 hrs by UV-Vis spectrophotometry; assay type: functional, cell-based
[16] = test system: 3T3-L1; assay: Effect on adipogenesis in mouse 3T3L1 cells in DI media assessed as reduction in fat-laden mature adipocytes at 50 uM after 8 days by oil red o assay; assay type: functional, cell-based
[17] = test system: 3T3-L1; assay: Effect on adipogenesis in mouse 3T3L1 cells in DI media assessed as increase in fat-laden mature adipocytes at <25 uM after 8 days by oil red o assay; assay type: functional, cell-based
[18] = test system: 3T3-L1; assay: Reduction in triglyceride release in mouse 3T3L1 cells at 50 uM after 48 hrs by oil red o assay; assay type: functional, cell-based
[19] = biological target: Peroxisome proliferator-activated receptor gamma (Mus musculus) (UniProt P37238); assay: Partial agonist activity at PPAR-gamma in mouse embryo fibroblast assessed as reduction in activation by transactivation assay in presence of rosiglitazone
[20] = Cytotoxicity against mouse 3T3L1 cells assessed as effect on lactate dehydrogenase release at 5 to 50 uM measured on day 8; assay type: cell-based; details: 3t3-l1, 50 µM
[21] = biological target: T4, Peroxisome proliferator-activated receptor gamma (Homo sapiens) (UniProt P37231); assay: Competitive binding to human GST-tagged PPAR-gamma at <=100 uM by TR-FRET assay
T4 sequence (whole entry): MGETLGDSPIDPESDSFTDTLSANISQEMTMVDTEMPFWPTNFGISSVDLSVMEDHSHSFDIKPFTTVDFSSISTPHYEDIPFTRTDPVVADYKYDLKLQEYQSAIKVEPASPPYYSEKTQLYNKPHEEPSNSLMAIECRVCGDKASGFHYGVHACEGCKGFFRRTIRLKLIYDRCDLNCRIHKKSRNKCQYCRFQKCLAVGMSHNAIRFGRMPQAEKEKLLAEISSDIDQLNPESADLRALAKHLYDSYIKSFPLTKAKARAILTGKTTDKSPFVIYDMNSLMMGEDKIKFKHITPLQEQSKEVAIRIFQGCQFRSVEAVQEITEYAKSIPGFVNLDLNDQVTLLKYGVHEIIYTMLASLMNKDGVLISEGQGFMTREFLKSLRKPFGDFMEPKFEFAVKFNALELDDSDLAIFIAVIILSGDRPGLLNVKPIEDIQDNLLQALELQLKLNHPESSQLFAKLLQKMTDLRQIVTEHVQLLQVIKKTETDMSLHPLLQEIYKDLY

[22] = test system: 3T3-L1; assay: Reduction of adipogenesis in mouse 3T3L1 cells assessed as decrease in lipid accumulation measured on day 8 by oil red o assay; assay type: functional, cell-based
[23] = biological target: T5, Peroxisome proliferator-activated receptor gamma (Homo sapiens, UniProt P37231); assay: Binding affinity to PPAR-gamma (unknown origin)
T5 sequence (P37231 whole entry): T4 sequence (whole entry)

[24] = test system: 3T3-L1; assay: Induction of lipolysis in mouse 3T3L1 cells assessed as up-regulation of Atgl gene exression by real time-qPCR analysis; assay type: functional, cell-based
[25] = test system: 3T3-L1; assay: Effect on adipogenesis in mouse 3T3L1 cells in DI media assessed as increase in lipid accumulation after 8 days by fluorescence-based AdipoRed assay; assay type: functional, cell-based
[26] = test system: 3T3-L1; assay: Effect on adipogenesis in mouse 3T3L1 cells assessed as reduction in Pparg gene expression at 5 to 50 uM after 8 days by real time quantitative PCR analysis relative to vehicle-treated control; assay type: functional, cell-based
[27] = test system: 3T3-L1; assay: Effect on adipogenesis in mouse 3T3L1 cells assessed as reduction in Fabp4 gene expression at 5 to 50 uM after 8 days by real time quantitative PCR analysis relative to vehicle-treated control; assay type: functional, cell-based
[28] = test system: 3T3-L1; assay: Effect on adipogenesis in mouse 3T3L1 cells assessed as reduction in Fabp4 gene expression at 5 to 50 uM after 4 days by real time quantitative PCR analysis relative to vehicle-treated control; assay type: functional, cell-based
[29] = test system: 3T3-L1; assay: Effect on adipogenesis in mouse 3T3L1 cells in DI media assessed as increase in fat-laden mature adipocytes after 8 days by oil red o assay; assay type: functional, cell-based
[30] = biological target: Peroxisome proliferator-activated receptor gamma (Mus musculus) (UniProt P37238); assay: Partial agonist activity at PPAR-gamma in mouse embryo fibroblast assessed as reduction in activation at 5 to 50 uM by transactivation assay in presence of rosiglitazone
[31] = test system: 3T3-L1; assay: Effect on adipogenesis in mouse 3T3L1 cells assessed as increase in lipid accumulation at 5 to 50 uM measured on day 8 by fluorescence-based AdipoRed assay; assay type: functional, cell-based
[32] = test system: 3T3-L1; assay: Effect on adipogenesis in mouse 3T3L1 cells assessed as increase in Srebf1 gene expression at 5 to 50 uM after 8 days by real time quantitative PCR analysis relative to vehicle-treated control; assay type: functional, cell-based
[33] = test system: 3T3-L1; assay: Effect on adipogenesis in mouse 3T3L1 cells assessed as reduction in Adipoq gene expression at 5 to 50 uM after 8 days by real time quantitative PCR analysis relative to vehicle-treated control; assay type: functional, cell-based
[34] = test system: 3T3-L1; assay: Effect on adipogenesis in mouse 3T3L1 cells assessed as increase in lipid accumulation at 5 to 50 uM measured on day 8 by oil red o assay; assay type: functional, cell-based
[35] = test system: 3T3-L1; assay: Effect on adipogenesis in mouse 3T3L1 cells assessed as reduction in Cebpa gene expression at 5 to 50 uM after 8 days by real time quantitative PCR analysis relative to vehicle-treated control; assay type: functional, cell-based
[36] = test system: 3T3-L1; assay: Effect on adipogenesis in mouse 3T3L1 cells assessed as reduction in Pparg gene expression at 5 to 50 uM after 4 days by real time quantitative PCR analysis relative to vehicle-treated control; assay type: functional, cell-based
[37] = test system: 3T3-L1; assay: Effect on adipogenesis in mouse 3T3L1 cells assessed as reduction in Adipoq gene expression at 5 to 50 uM after 4 days by real time quantitative PCR analysis relative to vehicle-treated control; assay type: functional, cell-based
[38] = test system: 3T3-L1; assay: Effect on adipogenesis in mouse 3T3L1 cells assessed as reduction in Srebf1 gene expression at 5 to 50 uM after 4 days by real time quantitative PCR analysis relative to vehicle-treated control; assay type: functional, cell-based
[39] = test system: 3T3-L1; assay: Effect on adipogenesis in mouse 3T3L1 cells assessed as reduction in Cebpa gene expression at 5 to 50 uM after 4 days by real time quantitative PCR analysis relative to vehicle-treated control; assay type: functional, cell-based
[40] = test system: 3T3-L1; assay: Activation of AMPK in mouse 3T3L1 cells assessed as AMPK phosphorylation at 500 uM after 5 hrs by Western blotting analysis; assay type: cell-based

Activity [1]: inactive
Activity [3]: 4%
Activity [11]: Dose-dependent effect
Activity [13]: inactive
Activity [19]: Dose-dependent effect
Activity [21]: Active
SMILES: COc1ccc(-c2c(-c3ccccc3Br)oc3cc(O)ccc3c2=O)cc1
Activity [2]: Non-toxic
Activity [4]: Toxic
Activity [5]: Active
Activity [6]: Dose-dependent effect
Activity [7]: inactive
Activity [8]: Active
Activity [9]: Active
Activity [10]: Active
Activity [12]: inactive
Activity [14]: Active
Activity [15]: Active
Activity [16]: Active
Activity [17]: Active
Activity [18]: Active
Activity [20]: Non-toxic
Activity [22]: Dose-dependent effect

Activity [3]: inactive
Activity [30]: Active
Activity [21]: inactive
SMILES: COc1ccc(-c2coc3cc(O)ccc3c2=O)cc1 [FORMONONETIN]
Activity [24]: Active
Activity [25]: Dose-dependent effect
Activity [26]: Active
Activity [27]: Active
Activity [28]: Active
Activity [29]: Dose-dependent effect
Activity [2]: Non-toxic
Activity [4]: Non-toxic
Activity [7]: inactive
Activity [10]: inactive
Activity [31]: Active
Activity [12]: inactive
Activity [32]: inactive
Activity [15]: Active
Activity [33]: Active
Activity [18]: inactive
Activity [20]: Non-toxic
Activity [34]: Active
Activity [35]: Active
Activity [36]: Active
Activity [37]: Active
Activity [38]: inactive
Activity [39]: Active

Further lines, the compound ahead of its results:

SMILES: COc1ccc(C2COc3cc(O)ccc3C2=O)cc1 (stereo unspecified)
pIC50 [23]: 3.91

SMILES: COc1ccc(C(C)C(=O)c2ccc(O)cc2O)cc1 (stereo unspecified)
pIC50 [23]: 4.59

SMILES: NC(=O)c1ncn([C@@H]2O[C@H](CO)[C@@H](O)[C@H]2O)c1N
Activity [40]: Active
